Data taken from the supplement of paper PMC4862054.

How the values were obtained:
Conditions in all cases: incubation time: 72 h
BT-549 [1] = assay: drug sensitivity score (DSS), CellTox Green (DSS (AUC-based score)); higher = stronger drug effect (viability inhibition or cytotoxicity); extreme values may be limits of the assay
Procedure, shortened: (§1)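 Plates with 384 wells held compound at 5 concentrations in 10-fold steps over a 10,000-fold range specific to each compound. Breast cancer cell lines were added in 20 µl suspension and incubated 72 h, then read for CellTox Green and CellTiter-Glo signals, with each plate normalised to 0.1 % DMSO and a positive kill control. The drug sensitivity score is based on the area under the fitted dose-response curve.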

HCC1937 [2] = assay: as above
Procedure, shortened: as §1

MDA-MB-436 [3] = assay: as above
Procedure, shortened: as §1

HDQ-P1 [4] = assay: as above
Procedure, shortened: as §1

MDA-MB-231 [5] = assay: as above
Procedure, shortened: as §1

HCC1599 [6] = assay: as above
Procedure, shortened: as §1

MDA-MB-453 = assay: normalised viability (% of control), CellTiter-Blue; higher = more viable cells (about 100 = DMSO control)
Procedure, shortened: (§2)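 Breast cancer cell lines were treated for 72 h in 384-well format and measured by CellTiter-Blue fluorescence at 560/590 nm. Results were normalised per plate to vehicle (100) and a positive kill control (0). The entry is normalised viability at a single listed concentration of the series.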

MFM-223 = assay: as above
Procedure, shortened: as §2

BT-549 [7] = assay: as above
Procedure, shortened: as §2

MDA-MB-468 = assay: as above
Procedure, shortened: as §2

HCC1937 [8] = assay: as above
Procedure, shortened: as §2

DU-4475 = assay: as above
Procedure, shortened: as §2

CAL-120 = assay: as above
Procedure, shortened: as §2

CAL-85-1 = assay: as above
Procedure, shortened: as §2

Hs578T = assay: as above
Procedure, shortened: as §2

SK-BR-3 = assay: as above
Procedure, shortened: as §2

HCC1143 = assay: as above
Procedure, shortened: as §2

CAL-51 = assay: as above
Procedure, shortened: as §2

MDA-MB-436 [9] = assay: as above
Procedure, shortened: as §2

BT-474 = assay: as above
Procedure, shortened: as §2

HDQ-P1 [10] = assay: as above
Procedure, shortened: as §2

CAL-148 = assay: as above
Procedure, shortened: as §2

MDA-MB-231 [11] = assay: as above
Procedure, shortened: as §2

HCC1599 [12] = assay: as above
Procedure, shortened: as §2

COc1cc(CCc2cc(NC(=O)c3ccc(N4CC(C)NC(C)C4)cc3)n[nH]2)cc(OC)c1 (stereo not given) [AZD4547]
Conditions	drug sensitivity score
BT-549 [1]	0
HCC1599 [6]	0
HCC1937 [2]	0
HDQ-P1 [4]	2.76
MDA-MB-231 [5]	0
MDA-MB-436 [3]	0

normalised viability [%]
Conditions	0.3 nM	1 nM	3 nM	10 nM	100 nM	1000 nM
BT-474	–	121	–	–	119	128
BT-549 [7]	–	89.1	–	–	105	112
CAL-51	120	–	107	99.8	–	–
CAL-85-1	91	–	90	94.6	–	–
CAL-120	–	86	–	–	80.4	65.1
CAL-148	97.9	–	93.7	89.7	–	–
DU-4475	92.3	–	84	103	–	–
HCC1143	–	94.3	–	–	87.9	93
HCC1599 [12]	–	92.5	–	–	77.4	18.8
HCC1937 [8]	–	157	–	–	103	115
HDQ-P1 [10]	113	–	120	117	–	–
Hs578T	–	102	–	–	91.2	122
MDA-MB-231 [11]	–	110	–	–	105	113
MDA-MB-436 [9]	–	105	–	–	104	109
MDA-MB-453	119	–	91.5	95.8	–	–
MDA-MB-468	–	113	–	–	105	105
MFM-223	–	91	–	–	50.4	12.3
SK-BR-3	–	112	–	–	113	105

CO[C@@H](C(=O)N1Cc2[nH]nc(NC(=O)c3ccc(N4CCN(C)CC4)cc3)c2C1)c1ccccc1 [Danusertib]
Conditions	drug sensitivity score
BT-549 [1]	1.26
HCC1599 [6]	0
HCC1937 [2]	1.64
HDQ-P1 [4]	0.964
MDA-MB-231 [5]	0
MDA-MB-436 [3]	3.88

normalised viability [%]
Conditions	3 nM	10 nM	30 nM	100 nM	1000 nM	10000 nM
BT-474	–	105	–	–	88.3	96.5
BT-549 [7]	–	97.9	–	–	64.3	16.2
CAL-51	116	–	116	74.3	–	–
CAL-85-1	85.8	–	82.8	76.2	–	–
CAL-120	–	80.7	–	–	46	8.24
CAL-148	92.5	–	85.5	29.7	–	–
DU-4475	89.8	–	88.2	70.6	–	–
HCC1143	–	78.2	–	–	61.8	31.3
HCC1599 [12]	–	98.4	–	–	74.7	73.1
HCC1937 [8]	–	99.8	–	–	41.7	41
HDQ-P1 [10]	89.9	–	90.7	72.4	–	–
Hs578T	–	95.4	–	–	59.3	23.9
MDA-MB-231 [11]	–	87.9	–	–	56.7	19.2
MDA-MB-436 [9]	–	89.7	–	–	72	60.9
MDA-MB-453	101	–	62.1	47.9	–	–
MDA-MB-468	–	107	–	–	36.2	48.1
MFM-223	–	71.3	–	–	36.9	55.4
SK-BR-3	–	81	–	–	73.5	77
